Data as given in BigSolDB 2.1.

CC(C)N1C(=O)N(c2ccccc2)CSC1=NC(C)(C)C
solubility (mole fraction)
Conditions	273.15 K	278.15 K	283.15 K	288.15 K	293.15 K	298.15 K	303.15 K	308.15 K	313.15 K	318.15 K
in DMF	0.0306	0.0389	0.0493	0.0608	0.0725	0.0871	0.104	0.122	0.141	0.162
in acetone	0.03	0.0361	0.0427	0.0504	0.0593	0.0699	0.0814	0.096	0.114	0.134
in acetonitrile	0.00534	0.00774	0.0101	0.0133	0.0171	0.0219	0.0284	0.0354	0.0448	0.0564
in ethanol	0.00539	0.007	0.00917	0.0116	0.0146	0.0182	0.0228	0.0276	0.0342	0.0425
in ethyl acetate	0.0372	0.0465	0.0561	0.0679	0.0815	0.0971	0.116	0.136	0.16	0.187
in isopropanol	0.00586	0.00785	0.0103	0.0131	0.0165	0.0207	0.0254	0.031	0.0376	0.0454
in methanol	0.00377	0.00497	0.0064	0.00797	0.00998	0.0123	0.0154	0.0184	0.0225	0.0272
in n-butanol	0.00627	0.00908	0.0127	0.0167	0.0218	0.0281	0.0364	0.045	0.0577	0.0714
in n-octanol	0.00824	0.0114	0.0152	0.0197	0.0251	0.0321	0.0404	0.0505	0.063	0.0789
in n-propanol	0.00564	0.00798	0.011	0.0148	0.019	0.0254	0.0323	0.0414	0.0528	0.0668
in toluene	0.053	0.0651	0.0782	0.0924	0.11	0.128	0.15	0.172	0.198	0.227
in water	2.84e-05	3.48e-05	4.18e-05	5.08e-05	6.05e-05	7.26e-05	8.54e-05	0.000101	0.00012	0.000144
